Reference: article PMC8191290, “Substrate specificities and reaction kinetics of the yeast oligosaccharyltransferase isoforms” (The Journal of Biological Chemistry, 2021)
Read-outs that look alike come from different tables or passages of the source.

Key:
[1] = biological target: T1, OST3 complex (Saccharomyces cerevisiae, UniProt P39007); test: In vitro glycosylation assay, kinetic parameters for acceptor peptides, OST3 complex; format: biochemical; settings: for Km: 10 mM MnCl2, pH 7.5, 30 °C, UPLC TAMRA fluorescence, read-out: KM (apparent); for Km / kcat (apparent): n = 3; for kcat (apparent): 30 °C
T1 construct: were purified separately from strains expressing only one type of complex; made in house; host or cells: Saccharomyces cerevisiae, BY4742-derived strain ost6::LEU2MX6 OST4-1D4::kanMX6 YEp352-OST3
Experimental: Figure 2 In vitro glycosylation assay for OST activity and peptide sequence preferences.A, schematic representation of the in vitro reaction setup for yeast OST activity. The peptide substrate containing the glycosylation sequon N-X-(S/T) is labeled with the TAMRA fluorophore at the N-terminus. Incubation with OST, synthetic LLO, and a divalent metal ion (Mn^2+preferred) results in the transfer of the sugar moiety (two GlcNAcs, blue squares) from the LLO to the fluorescently labeled peptide, yielding a glycopeptide product. B, measurement and analysis of the in vitro assay shown in A. Fluorescently labeled peptide (P) substrate and glycopeptide (GP) product are separated by reverse-phase chromatography using UPLC. The glycopeptide elutes earlier than the peptide and amounts of glycopeptide are quantified at different reaction time points by peak integration. C, quantification of kinetic parameters for synthetic peptide TAMRA-DANYTK. Reactions were performed with 2.8 μg purified extract containing OST3 complex before size-exclusion chromatography (approximately 1 μM OST3 complex), 150 μM LLO C20, and varying concentrations of the peptide. Glycopeptide product was measured by UPLC and turnover rates were determined by linear regression of the initial phase of the reaction and taking into account the enzyme concentration. The mean of three reactions is shown and the data were fitted by nonlinear regression according to the Michaelis–Menten formula (R^2 = 0.9803) using Prism. Error bars indicate standard deviations from the mean (n = 3). D, screening glycosylatable peptides derived from highly glycosylated yeast sequences. Reactions were performed with 0.4 μM purified OST3 complex, 150 μM LLO C20, 25 μM TAMRA-DANYTK, and 25 μM unlabeled competitor peptide. TAMRA-DANYTK glycopeptide product formed after 30 min was measured by UPLC and % inhibition was determined relative to a control reaction containing no unlabeled competitor peptide. E, quantification of kinetic parameters for synthetic peptide TAMRA-YANATS. Reactions were performed with 0.1 μM purified OST3 complex, 100 μM LLO C20, and varying concentrations of the peptide. Turnover rates were determined as in C. The mean of three reactions is shown and the data were fitted by nonlinear regression according to the Michaelis–Menten formula (R^2 = 0.9794) using Prism. Error bars indicate standard deviations from the mean (n = 3). P, phosphate; TAMRA, tetramethylrhodamine.
(§1) TAMRA-labeled peptides with 5-TAMRA at the N-terminus and an amide group at the C-terminus were synthesized by WatsonBio Sciences. Unlabeled peptides (Table S1) were synthesized by Genscript Corp. and were designed so that the asparagine of the glycosylation sequon was in the middle (except for Peptide 8). Lyophilized peptides were dissolved in dimethyl sulfoxide (DMSO), unless specified otherwise, to a 3 mM stock solution and further diluted in ddH2O for reactions.
(§2) Reactions were performed in a total volume of 10 μl containing the specified amount of TAMRA-labeled peptide, synthetic LLO analog, 10 mM MnCl2, and purified OST after size-exclusion chromatography in purification buffer (50 mM Hepes, pH 7.5, 150 mM NaCl, 1 mM MgCl2, 1 mM MnCl2, 10% (v/v) glycerol, 0.03% (w/v) DDM, and 0.006% (w/v) CHS). The concentration of OST was calculated using the molecular weight of 280 kDa. The reaction mixture was preincubated at 30 °C for 5 min before adding the peptide to start the reaction that proceeded at 30 °C. Time points were taken such that the reaction was in the linear phase. At each time point, 1 μl reaction mixture was taken and the reaction was stopped by dilution in stop solution (0.1% FA in 10% ACN, 10 mM KPO4 pH 8.0) such that the final peptide concentration was 2 μM.
Samples were analyzed by reverse-phase chromatography using a UPLC Dionex UltiMate 3000 with an Accucore 150-C18 100 × 2.1 mm 2.6 μm column (Thermo Fisher Scientific). […]

[2] = biological target: T1, OST3 complex; test: Turnover of synthetic TAMRA-labeled peptides; format: biochemical; settings: for Turnover after 5 min / Glycopeptide detected / Relative turnover: 0.5 µM OST3 complex, 20 µM peptide; for Turnover after 5 min / Relative turnover: 150 µM LLO C20; for Glycopeptide detected: 150 µM LLO C20, 5 min; for Relative turnover: TAMRA-DANYTK turnover defined as 100 %, 5 min
Experimental: as §1, §2
Samples were analyzed by reverse-phase chromatography using a UPLC Dionex UltiMate 3000 with an Accucore 150-C18 100 × 2.1 mm 2.6 μm column (Thermo Fisher Scientific). One microliter sample (2 pmol of peptide) was injected and measured by isocratic elution using a certain proportion of ACN (15% ACN for peptide TAMRA-DANYTK; 20% ACN for peptide TAMRA-YANATS) in 10 mM KPO4, pH 8.0 buffer so that the glycopeptide and peptide are fully separated and elute within 3 min at a constant flow rate of 0.7 ml/min, with a column temperature of 45 °C. The peptide and glycopeptide were detected through TAMRA fluorescence (excitation wavelength: 546 nm; emission wavelength: 579 nm).
The UPLC profiles were analyzed by integrating the peaks corresponding to the glycopeptide and peptide using Chromeleon 7 (Dionex) and calculating the amount of glycopeptide formed using the following equation, as previously described ([43]): [GP]=PeakareaGP/PeakareaP+PeakareaGP×[P] […]
Supp. Table 2. Turnover of synthetic TAMRA-labeled peptides
Peptide Glycopeptide Turnover after 5 min Relative turnover […]
TAMRA, tetramethylrhodamine
Turnover of TAMRA-labeled peptides after 5 min was determined using 0.5 µM OST3 complex, 20 µM indicated peptide and 150 µM LLO C20. Relative turnover compared to TAMRA-DANYTK is given by defining TAMRA-DANYTK turnover as 100 %.

[3] = 0.1 μM purified OST3 complex, 100 μM LLO C20, 10–500 μM peptide

Substance	kcat/KM ([1]; 0.1 μM purified OST3 complex, 100 μM LLO C20)	Km [1, 3]	kcat (apparent) [1, 3]	specificity relative to TAMRA-DANYTK ([1]; OST3 complex)	fold lower apparent KM ([1]; OST3 complex, relative to TAMRA-DANYTK)	Turnover after 5 min [2]	Glycopeptide detected [2]	times faster glycosylation than TAMRA-DANYTK ([2]; OST3 complex, initial turnover, relative to TAMRA-DANYTK)	Relative turnover [2]	kcat/KM ([1]; 2.8 μg purified extract (approx. 1 μM OST3 complex), 150 μM LLO C20)	Km ([1]; 2.8 μg purified extract (approx. 1 μM OST3 complex, before SEC), 150 μM LLO C20, 10–400 μM peptide, saturation not reached, listed as TAMRA-DANYTK-NH2)	Km ([1]; 2.8 μg purified extract (approx. 1 μM OST3 complex, before SEC), 150 μM LLO C20, 10–400 μM peptide, saturation not reached)	kcat (apparent) ([1]; 2.8 μg purified extract (approx. 1 μM OST3 complex, before SEC), 150 μM LLO C20, 10–400 μM peptide)
TAMRA-YANATS [shorter version of Peptide 5 of only six amino acid residues (TAMRA-YANATS)]	0.26 min^-1 μM^−s1	55.6 ± 6.5 µM	0.242 ± 0.012 s⁻¹	over ten times more specific	3.5 fold	84%	Yes	14 times	1400%				
TAMRA-DANYTK-NH2 [fluorescently labeled hexapeptide TAMRA-DANYTK-NH2 as the acceptor peptide, reference compound]						6%	Yes		100%	0.02 min^-1 μM^−s1	~200 µM	201 ± 51.3 µM	0.065 ± 0.01 s⁻¹
